Results as given in PubChem BioAssay AID330 (DTP/NCI, 2004).
“And” between values parts separate entries of the source, which are not always exact repeats. Identical values can stand only once. Toxic doses and inconclusive results are not listed. The calls were made as follows: active = survival T/C of 150% or more; inactive = T/C below 125% in these data.

Test system: P388 leukemia ip, CD2F1 mice, survival T/C
Test: NCI In Vivo Anticancer Drug Screen. Data for tumor model P388 Leukemia (intraperitoneal) in CD2F1 (CDF1) mice
Conditions: endpoint: median survival time, higher = longer survival
Summary of the method: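 Mice carrying the transplanted tumor received test compound or vehicle. Survival was recorded in each group, and the value is the treated-group measurement divided by that of the vehicle-treated control group.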

[1] = dose: 25.0 mg/kg/injection, schedule: Q01DX009 (ip), vehicle: Klucel (hydroxypropylcellulose) (HPC)
[2] = dose: 50.0 mg/kg/injection, schedule: Q01DX009 (ip), vehicle: Klucel (hydroxypropylcellulose) (HPC)
[3] = dose: 100.0 mg/kg/injection, schedule: Q01DX009 (ip), vehicle: Klucel (hydroxypropylcellulose) (HPC)
[4] = dose: 50.0 mg/kg/injection, schedule: Q01DX009 (ip), vehicle: saline with Tween-80
[5] = dose: 100.0 mg/kg/injection, schedule: Q01DX009 (ip), vehicle: saline with Tween-80
[6] = dose: 200.0 mg/kg/injection, schedule: Q01DX009 (ip), vehicle: saline with Tween-80
[7] = dose: 30.0 mg/kg/injection, schedule: Q01DX005 (ip), vehicle: saline with Tween-80
[8] = dose: 60.0 mg/kg/injection, schedule: Q01DX005 (ip), vehicle: saline with Tween-80

Measured: T/C

CC(=O)NO
inactive: dose: 50.0 mg/kg/injection, schedule: Q01DX009 (ip), vehicle: saline 104 % of control | dose: 100.0 mg/kg/injection, schedule: Q01DX009 (ip), vehicle: saline 96 % of control | dose: 200.0 mg/kg/injection, schedule: Q01DX009 (ip), vehicle: saline 103 % of control

NC(CSCC(=O)O)C(=O)O (stereo not drawn)
inactive: [1] 95 % of control | [2] 111 % of control | [3] 105 % of control | dose: 200.0 mg/kg/injection, schedule: Q01DX009 (ip), vehicle: Klucel (hydroxypropylcellulose) (HPC) 98 % of control

CCN(CC)Cc1cc(N=Nc2ccc3c(c2)c2ccccc2n3CC)c2ccccc2c1O
inactive: [4] 86 % of control | [5] 93 % of control | [6] 93 % of control

COc1ccc(CSC(=S)Nc2ccc(Cl)c(Cl)c2)cc1
inactive: dose: 12.5 mg/kg/injection, schedule: Q01DX009 (ip), vehicle: Klucel (hydroxypropylcellulose) (HPC) 111 % of control | [1] 120 % of control | [2] 120 % of control and 121 % of control | [3] 111 % of control

CC1CCC(C(C)C)C(NC(=O)c2cccnc2)C1 (stereo not drawn)
inactive: dose: 25.0 mg/kg/injection, schedule: Q04DX002 (ip), vehicle: Klucel (hydroxypropylcellulose) (HPC) 102 % of control | dose: 52.0 mg/kg/injection, schedule: Q04DX002 (ip), vehicle: Klucel (hydroxypropylcellulose) (HPC) 101 % of control | dose: 100.0 mg/kg/injection, schedule: Q04DX002 (ip), vehicle: Klucel (hydroxypropylcellulose) (HPC) 100 % of control | dose: 200.0 mg/kg/injection, schedule: Q04DX002 (ip), vehicle: Klucel (hydroxypropylcellulose) (HPC) 103 % of control

NC(=S)N/N=C/c1cc(=O)c2cc(Cl)ccc2o1
inactive: dose: 50.0 mg/kg/injection, schedule: Q01DX005 (ip), vehicle: saline with Tween-80 94 % of control | dose: 100.0 mg/kg/injection, schedule: Q01DX005 (ip), vehicle: saline with Tween-80 93 % of control | dose: 200.0 mg/kg/injection, schedule: Q01DX005 (ip), vehicle: saline with Tween-80 92 % of control

COC1=CC(=O)c2c(O)c3c(c(O)c2C1=O)OC1(Oc2c(cc4cc(C)oc(=O)c4c2O)CC1O)C3O (stereo not drawn)
inactive: dose: 3.0 mg/kg/injection, schedule: Q01DX009 (ip), vehicle: Klucel (hydroxypropylcellulose) (HPC) 100 % of control | dose: 6.0 mg/kg/injection, schedule: Q01DX009 (ip), vehicle: Klucel (hydroxypropylcellulose) (HPC) 117 % of control | dose: 12.0 mg/kg/injection, schedule: Q01DX009 (ip), vehicle: Klucel (hydroxypropylcellulose) (HPC) 99 % of control | dose: 24.0 mg/kg/injection, schedule: Q01DX009 (ip), vehicle: Klucel (hydroxypropylcellulose) (HPC) 99 % of control

CN(C)c1ccc(C=C2c3ccccc3C(=O)c3ccccc32)c(Cl)c1
inactive: [4] 100 % of control | [5] 91 % of control | [6] 94 % of control

CC1CC[N-]C(N)C1.CC1CC[N-]C(N)C1.[Cl][Pt+2][Cl] (stereo not drawn)
inactive: dose: 100.0 mg/kg/injection, schedule: Q01DX001 (sc), vehicle: olive oil, sesame oil, peanut oil 106 % of control | dose: 200.0 mg/kg/injection, schedule: Q01DX001 (sc), vehicle: olive oil, sesame oil, peanut oil 106 % of control | dose: 400.0 mg/kg/injection, schedule: Q01DX001 (sc), vehicle: olive oil, sesame oil, peanut oil 107 % of control

C1=C[N-]c2c3c(ccc2=C1)=CC=C[N-]3.C1=C[N-]c2c3c(ccc2=C1)=CC=C[N-]3.C1=C[N-]c2c3c(ccc2=C1)=CC=C[N-]3.[Co+3].[O-][Cl+3]([O-])([O-])O
inactive: dose: 7.5 mg/kg/injection, schedule: Q01DX005 (ip), vehicle: saline with Tween-80 98 % of control | dose: 15.0 mg/kg/injection, schedule: Q01DX005 (ip), vehicle: saline with Tween-80 98 % of control | [7] 104 % of control

CN1C(Cl)=NS(=O)(=O)c2ccccc21
inactive: [7] 120 % of control | [8] 112 % of control and 95 % of control

COc1cc(NS(C)(=O)=O)ccc1Nc1c2ccccc2nc2cc(C(F)(F)F)c(N)cc12
inactive: [3] 123 % of control
active: dose: 13.0 mg/kg/injection, schedule: Q04DX003 (ip), vehicle: distilled water + Tween-80 162 % of control | dose: 21.6 mg/kg/injection, schedule: Q04DX003 (ip), vehicle: distilled water + Tween-80 180 % of control | [1] 172 % of control | dose: 36.0 mg/kg/injection, schedule: Q04DX003 (ip), vehicle: distilled water + Tween-80 190 % of control | [2] 152 % of control and 182 % of control | dose: 60.0 mg/kg/injection, schedule: Q04DX003 (ip), vehicle: distilled water + Tween-80 228 % of control

BrC1CC(Br)c2c1c1c(c3c2C(Br)CC3Br)C(Br)CC1Br (stereo not drawn)
active: [5] 150 % of control | [6] 156 % of control

Cc1nc(N)nc(Nc2ccccc2)n1
inactive: [8] 103 % of control | dose: 120.0 mg/kg/injection, schedule: Q01DX005 (ip), vehicle: saline with Tween-80 99 % of control | dose: 240.0 mg/kg/injection, schedule: Q01DX005 (ip), vehicle: saline with Tween-80 101 % of control
